Experimental data published in patent US5405857A, “3-substituted 1,2,3,4,-oxatriazole-5-imine compounds, a process for the preparation thereof and a pharmaceutical preparation containing said compounds” (A/S GEA Farmaceutisk Fabrik, priority 1991, dated 1995).

Legend:
PAI-1 = experiment: Inhibition of plasminogen activator inhibitor (PAI-1) from blood platelets (fibrinolytic activity); assay type: cell-based, human; conditions: 50 μM, 60 minutes
Method: Compounds according to the invention were tested for their inhibition of plasminogen activator inhibitor (PAI). An established thrombus comprises aggregated platelets cohered by fibrin. The organism has a fibrinolyric system for maintaining normal physiological conditions. Endogenous plasminogen is activated to plasmin (fibrinolysin, that is a proteolytic enzyme decomposing fibrin) by means of a tissue plasminogen activator (t-PA). The platelets include the enzyme PAI-1 inhibiting the activation of plasminogen to plasmin, and thus also the decomposition of fibrin.
A general stimulation of the fibrinolytic system can cause serious hemostatic side effects (haemorrhages). A specific inhibition of PAI-1 induces an increased fibrinolysis in areas with many platelets, which is exactly the case in thrombi. As a result a thrombolytic effect is obtained.
Human PRP prepared by slight centrifugation as previously mentioned is used, but at a low temperature (4° C.). By incubation of PRP (1 ml in a plastic tube) during a slight shaking at 37° C. the PAI-1 activity is liberated, said PAI-1 activity being measured spectrophotometrically by means of a two-step procedure using commercial kits (Spectrolyse™/fibrin kit from BIOPOOL, Sweden).
The PAI-1 activity of the control PRP and PRP incubated with each of 6 compounds according to the invention and the reference substance sodium niroprusside (NNP) (50 μM of each for 60 minutes) appear from Table 6.

pre-contracted trachea = experiment: Relaxation of pre-contracted isolated trachea; set-up: species or system guinea pig; conditions: Cavia porcellus; carbamylcholine 0.3 μM, Krebs buffer, 37° C.
Method: Compounds according to the invention were tested for their ability to relax a pre-contracted trachea. A contraction of the respiratory passages in combination with a swelling of the mucuos membrane therein presents a vital factor at asthmatic conditions. Relaxation or dilation of the contracted respiratory passages will improve the asthmatic condition.
An isolated trachea from a guinea pig is used. After preparation of a strip which has maintained the circular musculature, the organ is divided into two parts of equal size. The two tracheal strips are suspended in their respective organ bath and connected to a transducer recording the contraction and relaxation of the organ by means of a recorder. The two tracheal strips are continuously bathed in a Krebs buffer at 37° C., constantly bubbled with carbogen (95% O2 and 5% CO2). After an equilibration time of about 3 hours the organs are tested for their sensitivity (contractility) to carbamylcholin a bolus being added directly to the bath (0.3 μM). If the contraction is satisfactory, the organs are transferred to the Krebs buffer containing the same concentration of carbamylcholine. The organs are now constantly exposed to the carbamylcholine and slowly develop a permanent contraction ("asthma"). The test substances are in bolus form added directly to the organ bath. After maximum effect (relaxation) the substances are removed by washing out and the tracheal strip reverts to its permanent contraction state. […] An EC50 -value (that is the concentration relaxing the organ by 50% relative to the maximum relaxation) is calculated for each test substance by means of a linear regression analysis (log concentration (μM) as a constant ad abscissa and % relaxation as variable ad ordinate). Sodium nitroprusside (NNP) and SIN-1 are used as reference substances.

[1] = target: T1, soluble guanylate cyclase (Homo sapiens, UniProt Q02153); experiment: Stimulation of guanylate cyclase from blood platelets (RIA); assay type: biochemical; conditions: 37° C.
T1 construct: The guanylate cyclase activity in the supernatant after incubation with and without the test substance; endogenous in cells; host or cells: human blood platelets, supernatant of homogenate
T1 sequence (Q02153 1-619): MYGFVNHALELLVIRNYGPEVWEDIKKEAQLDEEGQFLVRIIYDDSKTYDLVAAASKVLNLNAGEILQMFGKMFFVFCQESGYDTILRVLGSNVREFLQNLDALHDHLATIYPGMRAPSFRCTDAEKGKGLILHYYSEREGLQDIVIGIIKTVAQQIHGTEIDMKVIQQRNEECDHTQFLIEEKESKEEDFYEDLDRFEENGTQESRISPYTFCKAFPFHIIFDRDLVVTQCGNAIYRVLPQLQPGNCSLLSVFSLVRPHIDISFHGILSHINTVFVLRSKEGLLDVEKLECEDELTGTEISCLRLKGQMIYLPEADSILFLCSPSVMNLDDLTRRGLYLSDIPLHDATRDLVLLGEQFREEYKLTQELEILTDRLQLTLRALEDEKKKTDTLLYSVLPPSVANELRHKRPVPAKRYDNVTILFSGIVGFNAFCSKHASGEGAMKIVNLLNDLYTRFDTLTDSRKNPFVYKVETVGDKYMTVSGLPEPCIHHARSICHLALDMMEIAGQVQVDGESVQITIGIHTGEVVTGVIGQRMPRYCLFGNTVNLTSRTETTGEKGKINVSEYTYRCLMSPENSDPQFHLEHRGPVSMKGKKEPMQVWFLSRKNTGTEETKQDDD
T1 sequence (Q02108 1-690 partner): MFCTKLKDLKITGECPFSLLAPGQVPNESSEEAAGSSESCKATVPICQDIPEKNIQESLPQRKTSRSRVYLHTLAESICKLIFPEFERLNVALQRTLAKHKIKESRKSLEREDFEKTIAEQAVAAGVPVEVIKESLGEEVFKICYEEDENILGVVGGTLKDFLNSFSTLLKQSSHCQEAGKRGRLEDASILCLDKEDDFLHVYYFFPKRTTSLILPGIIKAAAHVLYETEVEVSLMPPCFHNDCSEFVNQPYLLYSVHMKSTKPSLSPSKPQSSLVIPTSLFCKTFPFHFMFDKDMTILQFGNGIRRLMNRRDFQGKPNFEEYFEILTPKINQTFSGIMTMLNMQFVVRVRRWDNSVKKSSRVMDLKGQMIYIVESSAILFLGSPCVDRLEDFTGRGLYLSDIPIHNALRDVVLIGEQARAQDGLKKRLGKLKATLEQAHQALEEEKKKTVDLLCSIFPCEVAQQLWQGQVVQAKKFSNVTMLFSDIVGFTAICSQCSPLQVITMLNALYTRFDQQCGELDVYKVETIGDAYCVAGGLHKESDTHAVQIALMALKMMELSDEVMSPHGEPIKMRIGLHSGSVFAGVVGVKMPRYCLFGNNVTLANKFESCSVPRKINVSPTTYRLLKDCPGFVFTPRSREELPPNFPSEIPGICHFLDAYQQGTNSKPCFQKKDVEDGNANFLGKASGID

With `COc1ccc(Cl)cc1-[n+]1noc([NH-])n1` [Example 20] the “% Inhibition of PAI-1 activity” value (PAI-1; compared to control) was 35%, the PAI-1 activity (PAI-1; human PRP, control 3.24) was 2.09 U/10^8 platelets and the EC50 (pre-contracted trachea) was 2700 nM. For the same compound, the Guanylate cyclase activity ([1]; 0.01 μM) was 2225 pmole c-GMP/mg prot. × 15 minutes and the Guanylate cyclase activity ([1]; 10 μm (so in the source)) was 47298 pmole c-GMP/mg prot. × 15 minutes.
